Results: ChEMBL document CHEMBL2029276, “E297G mutated bile salt export pump (BSEP) function enhancers derived from GW4064: structural development study and separation from farnesoid X receptor-agonistic activity” (Bioorg Med Chem Lett, 2012)

Key:
Bile salt export pump [1] = biological target: T1, Bile salt export pump (Homo sapiens, UniProt O95342, E297G); experiment: Enhancement of human BSEP E297G mutant trafficking to cell membrane in MDCK2 cells co-expressing NTCP assessed as accumulation of [3H]taurocholate at 10 uM preincubated for 24 hrs prior incubation with [3H]taurocholate measured after 2 hrs by liquid scintillation counting; conditions: mdck-ii
Bile acid receptor = biological target: T2, Bile acid receptor (Homo sapiens, UniProt Q96RI1); experiment: Agonist activity at human recombinant FXR expressed in HEK293 cells coexpressing CMX-GAL4N by luciferase reporter gene assay; assay type: functional, cell-based
T2 sequence (Q96RI1 whole entry): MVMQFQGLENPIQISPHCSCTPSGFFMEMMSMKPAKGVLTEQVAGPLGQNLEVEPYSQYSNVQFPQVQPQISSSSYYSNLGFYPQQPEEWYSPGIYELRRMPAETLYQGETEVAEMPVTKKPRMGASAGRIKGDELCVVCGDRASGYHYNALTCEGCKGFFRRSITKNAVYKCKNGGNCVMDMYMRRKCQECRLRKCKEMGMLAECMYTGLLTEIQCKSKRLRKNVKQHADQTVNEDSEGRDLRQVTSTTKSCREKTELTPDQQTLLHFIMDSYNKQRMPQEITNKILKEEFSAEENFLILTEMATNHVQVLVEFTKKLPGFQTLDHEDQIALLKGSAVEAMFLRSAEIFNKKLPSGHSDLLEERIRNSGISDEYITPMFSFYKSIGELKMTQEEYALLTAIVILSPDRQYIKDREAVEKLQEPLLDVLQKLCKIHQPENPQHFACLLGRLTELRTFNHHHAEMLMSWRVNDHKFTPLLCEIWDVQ

Bile salt export pump [2] = biological target: T1, Bile salt export pump; experiment: Enhancement of human BSEP E297G mutant trafficking to cell membrane in MDCK2 cells co-expressing NTCP assessed as accumulation of [3H]taurocholate at 1 uM preincubated for 24 hrs prior incubation with [3H]taurocholate measured after 2 hrs by liquid scintillation counting; conditions: mdck-ii

T1 sequence (O95342 whole entry E297G, the tested form may be a part): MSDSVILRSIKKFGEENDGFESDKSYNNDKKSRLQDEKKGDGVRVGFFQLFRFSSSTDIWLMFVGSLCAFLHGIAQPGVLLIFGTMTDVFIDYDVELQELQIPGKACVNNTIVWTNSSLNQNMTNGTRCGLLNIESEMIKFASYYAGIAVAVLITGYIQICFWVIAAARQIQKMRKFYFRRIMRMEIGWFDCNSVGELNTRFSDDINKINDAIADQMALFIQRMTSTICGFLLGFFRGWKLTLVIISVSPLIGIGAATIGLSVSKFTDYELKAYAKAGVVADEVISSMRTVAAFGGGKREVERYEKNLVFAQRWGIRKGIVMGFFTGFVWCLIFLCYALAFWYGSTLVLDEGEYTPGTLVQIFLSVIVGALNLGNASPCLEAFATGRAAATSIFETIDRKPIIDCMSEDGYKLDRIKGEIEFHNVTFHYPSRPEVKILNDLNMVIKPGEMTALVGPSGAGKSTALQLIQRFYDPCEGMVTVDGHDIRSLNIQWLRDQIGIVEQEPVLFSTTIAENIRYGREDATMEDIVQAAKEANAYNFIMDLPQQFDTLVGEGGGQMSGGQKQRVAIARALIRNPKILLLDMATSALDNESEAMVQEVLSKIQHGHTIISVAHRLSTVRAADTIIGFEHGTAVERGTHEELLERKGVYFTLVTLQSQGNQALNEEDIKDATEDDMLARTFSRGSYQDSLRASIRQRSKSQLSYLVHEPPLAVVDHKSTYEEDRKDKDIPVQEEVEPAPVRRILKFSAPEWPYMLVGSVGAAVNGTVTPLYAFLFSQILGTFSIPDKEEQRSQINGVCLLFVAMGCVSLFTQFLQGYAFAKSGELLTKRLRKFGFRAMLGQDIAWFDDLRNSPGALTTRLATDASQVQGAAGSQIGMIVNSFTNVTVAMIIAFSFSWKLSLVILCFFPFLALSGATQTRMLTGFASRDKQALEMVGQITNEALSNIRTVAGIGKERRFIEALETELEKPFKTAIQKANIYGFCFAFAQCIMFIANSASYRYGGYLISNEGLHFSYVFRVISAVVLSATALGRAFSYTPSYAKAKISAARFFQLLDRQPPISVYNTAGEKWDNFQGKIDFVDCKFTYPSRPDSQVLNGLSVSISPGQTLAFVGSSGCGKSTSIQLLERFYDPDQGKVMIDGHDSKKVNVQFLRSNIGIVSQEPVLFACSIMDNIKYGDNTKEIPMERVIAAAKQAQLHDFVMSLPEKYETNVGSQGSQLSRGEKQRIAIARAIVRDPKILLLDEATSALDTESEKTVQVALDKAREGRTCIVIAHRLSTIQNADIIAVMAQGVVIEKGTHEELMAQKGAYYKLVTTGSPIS

Structure (SMILES) | Activity (Bile salt export pump [1]) | EC50 (Bile acid receptor) | Activity (Bile salt export pump [2])
C[C@H](CCC(=O)O)[C@H]1CC[C@H]2[C@@H]3[C@H](O)C[C@@H]4C[C@H](O)CC[C@]4(C)[C@H]3CC[C@]12C [CHENODIOL] | 50% | – | –
CCCCN(C(=O)c1ccc(OCc2c(-c3c(Cl)cccc3Cl)noc2C(C)C)cc1Cl)c1cccc(C(=O)O)c1 | – | 1.1 µM | –
CC(C)c1onc(-c2c(Cl)cccc2Cl)c1COc1ccc(NC(=O)c2cccc(C(=O)O)c2)c(Cl)c1 | 75% | – | –
CCCCN(C(=O)c1cccc(C(=O)O)c1)c1ccc(OCc2c(-c3c(Cl)cccc3Cl)noc2C(C)C)cc1Cl | 42% | – | 59%
CC(C)c1onc(-c2c(Cl)cccc2Cl)c1COc1ccc(C(=O)N(Cc2ccccc2)c2ccc(C(=O)O)cc2)c(Cl)c1 | – | 2.6 µM | –
CC(C)c1onc(-c2c(Cl)cccc2Cl)c1COc1ccc(/C=C/c2cccc(C(=O)O)c2)c(Cl)c1 | 33% | – | –
CC(C)c1onc(-c2c(Cl)cccc2Cl)c1COc1ccc(C(=O)N(Cc2ccccc2)c2cccc(C(=O)O)c2)c(Cl)c1 | 31% | – | –
CC(C)c1onc(-c2c(Cl)cccc2Cl)c1COc1ccc(C(=O)N(c2cccc(C(=O)O)c2)c2cccc3ccccc23)c(Cl)c1 | – | 3 µM | –
C[C@H](CCC(=O)O)[C@H]1CC[C@H]2[C@@H]3CC[C@@H]4C[C@H](O)CC[C@]4(C)[C@H]3C[C@H](O)[C@]12C [DEOXYCHOLIC ACID] | – | 50 µM | –
CC(C)c1onc(-c2c(Cl)cccc2Cl)c1COc1ccc(N(C)C(=O)c2cccc(C(=O)O)c2)c(Cl)c1 | 60% | – | –
CC(C)c1onc(-c2c(Cl)cccc2Cl)c1COc1ccc(N(C(=O)c2cccc(C(=O)O)c2)c2cccc3ccccc23)c(Cl)c1 | 59% | 0.41 µM | –
CC(C)c1onc(-c2c(Cl)cccc2Cl)c1COc1ccc(N(Cc2ccccc2)C(=O)c2cccc(C(=O)O)c2)c(Cl)c1 | 50% | > 10 µM | –
